Data as given in US20200113910A1, “TRIAZINETRIONE DERIVATIVES AND THEIR USE AS MODULATORS OF NEUROTROPHIN RECEPTOR AND RECEPTOR TYROSINE KINASES” (ALZECURE PHARMA AB, priority 2016, published 2020).

Key:
[1] = biological target: T1, TrkA (Homo sapiens, UniProt P04629); assay: Enzyme Fragment Complementation cell-based assay, TrkA; conditions: U2OS-cells over-expressing TrkA; ligand NGF 10 ng/mL
T1 construct: expressed in transfected cells; host or cells: U2OS
Source text: (§1) A high throughput cell-based screen has been used to identify positive modulators of TrkA, TrkB and TrkC. The screen involves the use of cell-based assay overexpressing TrkA, TrkB or TrkC. The purpose of the assay is to identify compounds that modulate neurotrophin signalling (Forsell et al 2012). The assay can be used in inhibitor mode using a high concentration of ligand, in modulator mode using an intermediate concentration and in agonist mode using a low concentration of ligand.
(§2) The assay uses Enzyme Fragment Complementation (EFC) technique, which is a proximity-based assay. Briefly, cells used in this assay over-express two fusion proteins, i.e. the receptor, which can be either one of TrkA, TrkB, TrkC, IGF1R or FGFR1, fused to a small peptide of 8-galactosidase and an adaptor protein, i.e. SHC1 (or any other Trk-adaptor protein) fused to the major part of 8-galactosidase. […] The proximity between the small activating peptide on the receptor and the major part of 8-galactosidase on the adaptor protein leads to an active 8-galactosidase enzyme. The activation of the receptor is quantified by measuring the amount of active 8-galactosidase by its conversion of a non-luminescent substrate into a luminescent product.
(§3) U2OS-cells, over-expressing TrkA or TrkB or TrkC, are plated in 96- or 384-well plates and incubated overnight. Alternatively, cryopreserved HEK293-cells expressing IGFR1 or cryopreserved U2OS-cells expressing FGFR1 were plated in 96- or 384-well plates. On the following day, test compound was pre-mixed with ligand (NGF, BDNF, NT-3, IGF-1 or basic fibroblast growth factor (bFGF(FGF-2))) and the ligand-compound mixture is then added to the cells to yield a final ligand concentration of typically 10 ng/mL (or as indicated in FIGS. 3 and 4). After 3 hours of incubation at room temperature, the incubation is stopped by the addition of a β-galactosidase substrate mixture containing detergents. The substrate mixture is incubated for 60 minutes at ambient temperature. The luminescence is thereafter read by the use of a plate reader.
(§4) The potency is expressed as EC50 (pM) and the efficacy as % stimulation over 10 ng/mL of ligand . The ligands used was: NGF (for TrkA assay), BDNF (for TrkB assay), NT-3 (for TrkC assay) bFGF (for FGFR1 assay), IGF-1 (for IGFR1 assay), respectively.

[2] = biological target: T2, TrkC (Homo sapiens, UniProt Q16288); assay: Enzyme Fragment Complementation cell-based assay, TrkC; conditions: U2OS-cells over-expressing TrkC; ligand NT-3 10 ng/mL
T2 construct: expressed in transfected cells; host or cells: U2OS
T2 sequence (Q16288 32-839): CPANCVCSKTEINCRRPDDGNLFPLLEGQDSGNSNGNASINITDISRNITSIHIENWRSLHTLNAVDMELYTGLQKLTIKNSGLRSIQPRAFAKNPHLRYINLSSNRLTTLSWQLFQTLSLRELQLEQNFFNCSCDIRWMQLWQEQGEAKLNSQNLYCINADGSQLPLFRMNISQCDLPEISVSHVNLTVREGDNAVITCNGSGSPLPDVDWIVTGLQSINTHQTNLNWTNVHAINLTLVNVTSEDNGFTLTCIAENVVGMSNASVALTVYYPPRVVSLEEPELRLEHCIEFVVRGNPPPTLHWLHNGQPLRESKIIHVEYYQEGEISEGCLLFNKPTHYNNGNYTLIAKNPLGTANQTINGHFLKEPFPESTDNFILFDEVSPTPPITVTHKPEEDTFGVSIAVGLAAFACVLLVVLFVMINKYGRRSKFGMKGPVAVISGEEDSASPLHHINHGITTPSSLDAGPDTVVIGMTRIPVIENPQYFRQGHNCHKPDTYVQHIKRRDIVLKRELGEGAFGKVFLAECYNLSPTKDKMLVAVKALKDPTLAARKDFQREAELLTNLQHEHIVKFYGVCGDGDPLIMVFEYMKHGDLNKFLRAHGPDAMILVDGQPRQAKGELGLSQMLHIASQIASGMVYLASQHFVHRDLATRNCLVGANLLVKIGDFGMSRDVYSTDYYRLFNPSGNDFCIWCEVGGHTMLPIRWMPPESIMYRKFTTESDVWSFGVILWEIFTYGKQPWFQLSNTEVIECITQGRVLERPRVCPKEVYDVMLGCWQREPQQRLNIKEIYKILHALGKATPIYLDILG
Source text: as §1, §2, §3, §4

[3] = biological target: T3, FGFR1 (Homo sapiens, UniProt P11362); assay: Enzyme Fragment Complementation cell-based assay, FGFR1; conditions: U2OS-cells expressing FGFR1; ligand bFGF 10 ng/mL
T3 construct: expressed in transfected cells; host or cells: U2OS (cryopreserved)
T3 sequence (P11362 22-822): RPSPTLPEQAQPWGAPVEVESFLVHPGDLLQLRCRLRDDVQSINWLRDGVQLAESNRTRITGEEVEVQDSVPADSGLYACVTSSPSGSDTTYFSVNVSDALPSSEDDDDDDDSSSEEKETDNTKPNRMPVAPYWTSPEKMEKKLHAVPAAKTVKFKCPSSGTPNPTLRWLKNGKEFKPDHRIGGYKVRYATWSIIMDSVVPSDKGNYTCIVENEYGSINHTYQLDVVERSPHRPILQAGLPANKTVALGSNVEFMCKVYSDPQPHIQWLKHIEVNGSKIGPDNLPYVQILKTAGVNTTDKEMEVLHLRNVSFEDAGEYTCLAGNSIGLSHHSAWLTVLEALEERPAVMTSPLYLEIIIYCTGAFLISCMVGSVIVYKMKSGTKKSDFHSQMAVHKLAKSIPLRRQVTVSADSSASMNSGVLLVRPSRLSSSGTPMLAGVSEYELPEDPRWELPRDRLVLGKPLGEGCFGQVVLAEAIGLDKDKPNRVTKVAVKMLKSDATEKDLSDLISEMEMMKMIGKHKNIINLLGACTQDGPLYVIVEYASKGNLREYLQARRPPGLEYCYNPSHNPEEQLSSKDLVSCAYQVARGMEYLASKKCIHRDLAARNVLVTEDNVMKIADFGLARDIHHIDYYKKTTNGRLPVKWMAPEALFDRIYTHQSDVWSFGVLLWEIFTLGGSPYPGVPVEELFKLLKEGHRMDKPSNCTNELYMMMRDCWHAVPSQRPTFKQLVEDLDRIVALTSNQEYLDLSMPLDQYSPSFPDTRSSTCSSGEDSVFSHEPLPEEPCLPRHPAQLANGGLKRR
Source text: as §2, §3, §4

[4] = biological target: T4, TrkB (Homo sapiens, UniProt Q16620); assay: Enzyme Fragment Complementation cell-based assay, TrkB; conditions: for TrkB efficacy, % stimulation over 10 ng/mL of ligand: U2OS-cells over-expressing TrkB, ligand BDNF 10 ng/mL
T4 construct: expressed in transfected cells; host or cells: U2OS
T4 sequence (Q16620 32-822): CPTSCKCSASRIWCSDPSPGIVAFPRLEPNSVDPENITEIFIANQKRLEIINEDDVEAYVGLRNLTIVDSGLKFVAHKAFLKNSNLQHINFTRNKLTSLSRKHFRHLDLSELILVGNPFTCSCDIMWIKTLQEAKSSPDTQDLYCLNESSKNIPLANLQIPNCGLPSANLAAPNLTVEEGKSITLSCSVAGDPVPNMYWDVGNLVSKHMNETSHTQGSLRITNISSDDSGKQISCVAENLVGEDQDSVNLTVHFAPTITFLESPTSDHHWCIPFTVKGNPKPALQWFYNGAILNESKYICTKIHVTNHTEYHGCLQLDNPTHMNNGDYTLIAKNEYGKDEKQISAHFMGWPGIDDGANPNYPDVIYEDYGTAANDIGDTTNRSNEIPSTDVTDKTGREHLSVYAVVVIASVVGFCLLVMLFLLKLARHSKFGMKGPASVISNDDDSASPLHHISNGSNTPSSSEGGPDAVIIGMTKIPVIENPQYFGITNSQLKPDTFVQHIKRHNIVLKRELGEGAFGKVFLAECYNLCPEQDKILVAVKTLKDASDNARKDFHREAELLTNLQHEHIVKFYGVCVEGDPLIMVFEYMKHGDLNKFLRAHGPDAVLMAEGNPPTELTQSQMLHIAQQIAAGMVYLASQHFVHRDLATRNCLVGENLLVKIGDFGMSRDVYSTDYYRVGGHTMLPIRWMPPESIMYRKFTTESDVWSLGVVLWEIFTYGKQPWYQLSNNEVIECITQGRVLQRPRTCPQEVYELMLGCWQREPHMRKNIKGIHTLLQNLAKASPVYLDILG
Source text: as §1, §2, §3, §4

[5] = biological target: T5, IGF1R (Homo sapiens, UniProt P08069); assay: Enzyme Fragment Complementation cell-based assay, IGF1R; conditions: HEK293-cells expressing IGFR1; ligand IGF-1 10 ng/mL
T5 construct: expressed in transfected cells; host or cells: HEK293 (cryopreserved)
T5 sequence (P08069 31-736 limits assumed): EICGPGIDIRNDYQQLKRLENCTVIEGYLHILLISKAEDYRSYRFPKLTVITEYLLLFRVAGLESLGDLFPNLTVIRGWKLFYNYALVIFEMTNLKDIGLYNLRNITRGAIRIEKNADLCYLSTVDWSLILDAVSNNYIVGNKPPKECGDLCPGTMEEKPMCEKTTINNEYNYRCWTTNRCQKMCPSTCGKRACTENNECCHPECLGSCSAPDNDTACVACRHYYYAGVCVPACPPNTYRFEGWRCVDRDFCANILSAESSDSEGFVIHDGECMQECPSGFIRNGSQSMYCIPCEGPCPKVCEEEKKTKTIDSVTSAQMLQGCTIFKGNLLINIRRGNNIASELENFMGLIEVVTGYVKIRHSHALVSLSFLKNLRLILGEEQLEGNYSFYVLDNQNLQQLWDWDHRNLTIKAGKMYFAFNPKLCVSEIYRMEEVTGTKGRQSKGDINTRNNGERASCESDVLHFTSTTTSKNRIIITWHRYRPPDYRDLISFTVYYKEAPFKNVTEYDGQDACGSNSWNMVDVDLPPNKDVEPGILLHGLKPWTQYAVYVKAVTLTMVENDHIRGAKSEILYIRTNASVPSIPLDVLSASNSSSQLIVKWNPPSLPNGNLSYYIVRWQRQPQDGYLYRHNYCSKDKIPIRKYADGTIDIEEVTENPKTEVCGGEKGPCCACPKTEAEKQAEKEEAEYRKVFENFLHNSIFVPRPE
T5 sequence (P08069 741-1367 limits assumed): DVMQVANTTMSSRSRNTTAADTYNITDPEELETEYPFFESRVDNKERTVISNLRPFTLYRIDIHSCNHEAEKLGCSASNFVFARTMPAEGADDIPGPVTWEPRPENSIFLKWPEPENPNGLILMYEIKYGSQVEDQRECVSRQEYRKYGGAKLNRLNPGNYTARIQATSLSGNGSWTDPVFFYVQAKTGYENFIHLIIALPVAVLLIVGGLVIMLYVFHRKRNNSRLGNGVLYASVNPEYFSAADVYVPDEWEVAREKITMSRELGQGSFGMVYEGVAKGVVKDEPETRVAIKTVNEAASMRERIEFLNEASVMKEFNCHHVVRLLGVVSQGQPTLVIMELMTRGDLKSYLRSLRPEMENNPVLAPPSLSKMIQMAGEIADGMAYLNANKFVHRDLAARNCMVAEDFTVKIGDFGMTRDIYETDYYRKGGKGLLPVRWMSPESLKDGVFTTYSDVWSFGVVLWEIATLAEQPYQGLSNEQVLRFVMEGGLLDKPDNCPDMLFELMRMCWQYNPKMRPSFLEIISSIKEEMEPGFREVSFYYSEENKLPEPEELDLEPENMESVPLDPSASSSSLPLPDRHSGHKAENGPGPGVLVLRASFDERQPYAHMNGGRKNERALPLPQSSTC
Source text: as §2, §3, §4

[6] = tested on: C57/BI6 mice; assay: Passive avoidance task, MK-801-treated mice (Example 2); assay type: in vivo; conditions: different doses i.p. once per day for 4 days; MK-801 0.3 mg/kg s.c.; FIG. 2
Procedure: (§5) Passive avoidance (PA) is an aversive learning task based on classical (Pavlovian) fear conditioning that allows for analysis of both facilitation and impairment of memory function by adjusting the unconditioned stimulus, i.e. the electrical foot shock. Commonly a cognitive-impairing agent is administered to the animals to mimic the neurochemical disturbances present in various cognitive disorders e.g. cholinergic (scopolamine) and glutamatergic (MK-801) deficits.
(§6) Prior to testing, the animals are brought to the experimental room where they were allowed to habituate for 60 min. The test is conducted using a modified shuttle box with two communicating compartments of equal size with a small sliding door built into the separating wall and a stainless steel bar floor. One of the compartments is not illuminated and thus black whereas the other compartment (the light one) is illuminated by an electric bulb, installed on the top of a plexiglass cover. The PA training is conducted in a single session. […] Latency to cross over into the dark compartment (training latency) is recorded. […] The latency to cross over into the dark compartment with all four feet is measured (retention latency) as well as time in bright compartment and a number of other relevant parameters (e.g. number of visits in the dark compartment). […]

[7] = tested on: C57/BI6 mice; assay: Passive avoidance task, scopolamine-treated mice (Example 1); assay type: in vivo; conditions: 20 mg/kg i.p. once per day for 4 days; scopolamine 0.3 mg/kg s.c.; FIG. 1
Procedure: as §5, §6

[8] = tested on: cellular prion protein (PrP^C); conditions: Suzuki et al., FEBS Open Bio 2016; cited from earlier work
[9] = tested on: ephrin type-B receptor 2 (EphB2); conditions: Suzuki et al., FEBS Open Bio 2016; cited from earlier work
[10] = FIG. 3, cells stimulated with or without BDNF

T1 sequence (P04629 33-796): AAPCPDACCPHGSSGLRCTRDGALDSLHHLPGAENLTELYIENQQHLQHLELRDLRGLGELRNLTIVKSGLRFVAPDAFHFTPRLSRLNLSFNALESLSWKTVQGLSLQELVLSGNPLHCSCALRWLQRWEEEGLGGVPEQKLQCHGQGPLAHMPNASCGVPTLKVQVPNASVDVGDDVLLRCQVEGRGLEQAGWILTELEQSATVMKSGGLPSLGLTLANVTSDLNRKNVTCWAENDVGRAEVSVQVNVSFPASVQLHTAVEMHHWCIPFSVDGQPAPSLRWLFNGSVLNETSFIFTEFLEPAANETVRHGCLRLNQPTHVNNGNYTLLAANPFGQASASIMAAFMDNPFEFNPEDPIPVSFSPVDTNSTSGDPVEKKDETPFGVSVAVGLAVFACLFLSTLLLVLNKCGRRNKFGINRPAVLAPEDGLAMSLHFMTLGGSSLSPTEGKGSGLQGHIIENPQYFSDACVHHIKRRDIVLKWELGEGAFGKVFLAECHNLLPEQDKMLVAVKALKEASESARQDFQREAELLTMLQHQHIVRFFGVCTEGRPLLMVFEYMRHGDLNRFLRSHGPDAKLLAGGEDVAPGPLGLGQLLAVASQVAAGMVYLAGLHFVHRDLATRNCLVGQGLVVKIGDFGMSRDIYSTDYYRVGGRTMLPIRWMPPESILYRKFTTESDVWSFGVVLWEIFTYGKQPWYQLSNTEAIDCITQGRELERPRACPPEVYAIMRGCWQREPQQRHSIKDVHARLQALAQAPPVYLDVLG

Row | SMILES | TrkA efficacy, % stimulation over 10 ng/mL of ligand [1] | TrkC efficacy, % stimulation over 10 ng/mL of ligand [2] | FGFR1 efficacy, % stimulation over 10 ng/mL of ligand [3] | decrease of activity at the two highest concentrations tested, TrkB expressing cells [4, 10] | TrkB efficacy, % stimulation over 10 ng/mL of ligand [4] | IGF1R efficacy, % stimulation over 10 ng/mL of ligand [5] | total time spent in bright compartment in passive avoidance task (cognitive function) [6] | retention latency in passive avoidance task (cognitive function) [7] | inhibitory activity at the cellular prion protein (PrP^C) [8] | dose-response curve with BDNF as ligand in TrkB expressing cells [4, 10] | inhibition of binding of β-amyloid oligomers to EphB2 [9]
1 | Cc1cc(-n2c(=O)[nH]c(=O)n(C)c2=O)ccc1Oc1ccc([S+]([O-])C(F)(F)F)cc1 (centres unmarked) [Compound 3, 1-methyl-3-[3-methyl-4-(4-trifluoromethanesulfinylphenoxy)phenyl]-1,3,5-triazinane-2,4,6-trione] | 143% | 74% | 102% | not observed | 196% | 109% |  |  |  |  | 
2 | Cc1cc(-n2c(=O)[nH]c(=O)n(C)c2=O)ccc1Oc1ccc(S(=O)(=O)C(F)(F)F)cc1 [Compound 2, 1-methyl-3-[3-methyl-4-(4-trifluoromethanesulfonylphenoxy)phenyl]-1,3,5-triazinane-2,4,6-trione] | 138% | 70% | 43% | not observed | 232% | 25% | increased time spent in the bright area |  |  |  | 
3 | Cc1cc(-n2c(=O)[nH]c(=O)n(-c3ccccc3)c2=O)ccc1Oc1ccc(S(=O)(=O)C(F)(F)F)cc1 [Compound 6, 1-[-3-methyl-4-(4-trifluoromethanesulfonylphenoxy)phenyl]-3-phenyl-1,3,5-triazinane-2,4,6-trione] | 147% | 124% |  |  | 300% |  |  |  |  |  | 
4 | Cc1cc(-n2c(=O)[nH]c(=O)n(-c3ccccc3)c2=O)ccc1Oc1ccc(SC(F)(F)F)cc1 [Compound 5, 1-(3-methyl-4-{4-[(trifluoromethyl)sulfanyl]phenoxy}phenyl)-3-phenyl-1,3,5-triazinane-2,4,6-trione] | 112% | 84% |  |  | 210% |  |  |  |  |  | 
5 | Cc1cc(-n2c(=O)[nH]c(=O)n(C)c2=O)ccc1Oc1ccc(SC(F)(F)F)cc1 [Compound 1, 1-methyl-3-(3-methyl-4-{4-[(trifluoromethyl)sulfanyl]phenoxy}phenyl)-1,3,5-triazinane-2,4,6-trione] | 109% | 87% | 73% | significantly decreases | 124% | 83% |  | increased retention latency | lack of similar inhibitory activity | no clear dose-response curve | 30%
6 | Cc1cc(-n2c(=O)[nH]c(=O)n(-c3ccccc3)c2=O)ccc1Oc1ccc([S+]([O-])C(F)(F)F)cc1 (centres unmarked) [Compound 4, 1-[3-methyl-4-(4-trifluoromethanesulfinylphenoxy)phenyl]-3-phenyl-1,3,5-triazinane-2,4,6-trione] | 128% | 69% |  |  | 217% |  |  |  |  |  | 
